This note sets out measurements from patent US11649227B2, “Allosteric chromenone inhibitors of phosphoinositide 3-kinase (PI3K) for the treatment of disease” (Petra Pharma Corporation, priority 2020, dated 2023).

Read-outs that look alike come from different tables or passages of the source.

The subject of data set [1] is T-47D. The experiment in a line: Cellular Assay T-47D. Particulars: Homo sapiens, T47D; T-47D cells. The format is cell-based.
Data set [2] addresses PI3K-B (Homo sapiens (Human), UniProt P42338). Description: Selectivity against selected lipid kinases: PI3K-B. The data set is classed as biochemical.
Data set [3] addresses PI3K-D (Homo sapiens (Human), UniProt O00329). The experiment in a line: Selectivity against selected lipid kinases: PI3K-D. The format is biochemical.
In data set [4] the target is PI3K-G (Homo sapiens (Human), UniProt P48736). Description: Selectivity against selected lipid kinases: PI3K-G. The data set is classed as biochemical.
The target of data set [5] is Vps34 (Homo sapiens (Human), UniProt Q8NEB9). Description: Selectivity against selected lipid kinases: Vps34. The data set is classed as biochemical.
Data set [6] concerns the target DNA-PK (Homo sapiens (Human), UniProt P78527). The experiment in a line: Selectivity against selected lipid kinases: DNA-PK. The data set is classed as biochemical.
Data set [7] deals with mTOR (Homo sapiens (Human), UniProt P42345). The experiment in a line: Selectivity against selected lipid kinases: mTOR. The format is biochemical.
A short description of data set [8]: Mouse PK Assays. Particulars: in vivo; for clearance: read-out: PK-Mouse: IV Cl; for bioavailability: read-out: PK-Mouse: PO F (%).
Setting [9] is: IV 1 mg/kg, read-out: PK-Mouse: IV-AUC-0-last.
The mark [10] stands for this setting: PO 10 mg/kg, 20% DMSO/60% PEG400/20% Water, fed.
The mark [11] stands for this setting: PO 50 mg/kg, 20% DMSO/60% PEG400/20% Water, fed.
Where [12] appears, read: PO 50 mg/kg, 20% DMSO/60% PEG400/20% Water, fed, read-out: PK-Mouse: PO AUC-0-last.
Setting [13] is: PO 10 mg/kg, 30% SBE-beta-cyclodextrin, fed.

Sequence of Vps34 (Q8NEB9 whole entry, species assumed): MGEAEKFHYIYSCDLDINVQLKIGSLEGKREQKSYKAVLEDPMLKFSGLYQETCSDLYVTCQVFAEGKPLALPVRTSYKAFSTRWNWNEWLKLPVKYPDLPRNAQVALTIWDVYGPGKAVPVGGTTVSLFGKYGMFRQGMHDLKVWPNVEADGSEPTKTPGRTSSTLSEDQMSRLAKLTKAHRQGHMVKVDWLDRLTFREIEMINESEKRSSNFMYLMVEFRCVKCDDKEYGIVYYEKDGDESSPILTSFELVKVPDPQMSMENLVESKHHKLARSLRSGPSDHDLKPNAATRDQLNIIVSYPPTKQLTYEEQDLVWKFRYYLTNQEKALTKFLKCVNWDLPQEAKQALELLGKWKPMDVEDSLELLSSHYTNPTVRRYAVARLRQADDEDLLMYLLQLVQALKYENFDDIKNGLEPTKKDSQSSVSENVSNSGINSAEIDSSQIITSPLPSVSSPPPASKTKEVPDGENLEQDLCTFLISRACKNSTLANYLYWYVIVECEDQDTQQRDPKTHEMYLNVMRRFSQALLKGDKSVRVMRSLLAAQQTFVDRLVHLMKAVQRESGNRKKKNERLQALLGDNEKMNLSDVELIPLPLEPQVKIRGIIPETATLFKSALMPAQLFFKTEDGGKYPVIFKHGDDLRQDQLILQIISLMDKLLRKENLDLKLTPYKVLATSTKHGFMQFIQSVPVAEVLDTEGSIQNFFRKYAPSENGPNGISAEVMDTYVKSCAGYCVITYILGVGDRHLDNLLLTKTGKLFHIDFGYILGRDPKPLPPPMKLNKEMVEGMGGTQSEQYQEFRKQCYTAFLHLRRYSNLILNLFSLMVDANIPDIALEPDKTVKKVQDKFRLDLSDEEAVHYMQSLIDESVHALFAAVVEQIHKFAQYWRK
Sequence of PI3K-D (O00329 whole entry): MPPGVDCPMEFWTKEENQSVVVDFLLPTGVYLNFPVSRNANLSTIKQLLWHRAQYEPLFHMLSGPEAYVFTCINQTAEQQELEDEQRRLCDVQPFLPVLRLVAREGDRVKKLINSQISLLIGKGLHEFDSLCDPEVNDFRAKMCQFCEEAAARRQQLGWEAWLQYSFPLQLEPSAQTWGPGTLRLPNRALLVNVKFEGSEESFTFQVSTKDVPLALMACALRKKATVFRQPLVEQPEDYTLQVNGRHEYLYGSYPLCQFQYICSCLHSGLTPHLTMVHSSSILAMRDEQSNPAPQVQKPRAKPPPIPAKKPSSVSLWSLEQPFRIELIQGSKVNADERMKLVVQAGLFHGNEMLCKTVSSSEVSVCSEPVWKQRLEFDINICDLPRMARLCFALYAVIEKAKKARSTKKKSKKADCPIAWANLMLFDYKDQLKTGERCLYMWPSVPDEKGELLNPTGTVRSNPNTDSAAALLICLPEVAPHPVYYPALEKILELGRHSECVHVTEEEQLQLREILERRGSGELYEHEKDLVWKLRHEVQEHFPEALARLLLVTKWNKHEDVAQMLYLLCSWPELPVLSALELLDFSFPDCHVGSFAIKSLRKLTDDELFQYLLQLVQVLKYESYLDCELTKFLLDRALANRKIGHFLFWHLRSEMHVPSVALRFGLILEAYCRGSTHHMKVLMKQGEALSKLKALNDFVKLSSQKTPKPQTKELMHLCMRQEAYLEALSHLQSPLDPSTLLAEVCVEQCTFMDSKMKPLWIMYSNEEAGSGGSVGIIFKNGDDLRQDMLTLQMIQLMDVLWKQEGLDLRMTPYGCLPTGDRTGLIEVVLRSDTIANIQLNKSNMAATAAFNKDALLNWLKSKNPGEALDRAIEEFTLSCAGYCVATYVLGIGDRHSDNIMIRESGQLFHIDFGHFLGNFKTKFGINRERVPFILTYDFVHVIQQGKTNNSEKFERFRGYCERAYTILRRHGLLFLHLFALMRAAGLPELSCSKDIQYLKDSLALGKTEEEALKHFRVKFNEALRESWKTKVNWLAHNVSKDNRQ
Sequence of PI3K-D (P27986 whole entry partner): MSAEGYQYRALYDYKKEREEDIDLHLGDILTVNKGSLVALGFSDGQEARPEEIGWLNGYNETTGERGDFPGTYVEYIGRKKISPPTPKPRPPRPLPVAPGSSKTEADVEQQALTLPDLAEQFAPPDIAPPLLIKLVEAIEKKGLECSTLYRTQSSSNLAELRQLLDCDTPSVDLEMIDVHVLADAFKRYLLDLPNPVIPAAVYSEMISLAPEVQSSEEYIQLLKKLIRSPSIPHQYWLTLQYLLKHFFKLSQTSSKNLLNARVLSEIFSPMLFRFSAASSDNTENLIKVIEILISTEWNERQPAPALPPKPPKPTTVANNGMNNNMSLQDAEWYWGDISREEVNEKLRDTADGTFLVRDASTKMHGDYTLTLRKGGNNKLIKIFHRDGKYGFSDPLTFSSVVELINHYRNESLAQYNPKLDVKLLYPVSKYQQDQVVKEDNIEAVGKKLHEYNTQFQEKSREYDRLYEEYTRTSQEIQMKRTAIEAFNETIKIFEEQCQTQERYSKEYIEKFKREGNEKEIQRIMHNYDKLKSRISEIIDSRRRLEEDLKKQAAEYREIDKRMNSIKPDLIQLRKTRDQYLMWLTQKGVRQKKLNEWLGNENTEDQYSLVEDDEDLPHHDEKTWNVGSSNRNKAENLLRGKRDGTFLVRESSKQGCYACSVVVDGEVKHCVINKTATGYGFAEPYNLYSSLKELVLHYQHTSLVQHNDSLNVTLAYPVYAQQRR
Sequence of PI3K-G (P48736 whole entry): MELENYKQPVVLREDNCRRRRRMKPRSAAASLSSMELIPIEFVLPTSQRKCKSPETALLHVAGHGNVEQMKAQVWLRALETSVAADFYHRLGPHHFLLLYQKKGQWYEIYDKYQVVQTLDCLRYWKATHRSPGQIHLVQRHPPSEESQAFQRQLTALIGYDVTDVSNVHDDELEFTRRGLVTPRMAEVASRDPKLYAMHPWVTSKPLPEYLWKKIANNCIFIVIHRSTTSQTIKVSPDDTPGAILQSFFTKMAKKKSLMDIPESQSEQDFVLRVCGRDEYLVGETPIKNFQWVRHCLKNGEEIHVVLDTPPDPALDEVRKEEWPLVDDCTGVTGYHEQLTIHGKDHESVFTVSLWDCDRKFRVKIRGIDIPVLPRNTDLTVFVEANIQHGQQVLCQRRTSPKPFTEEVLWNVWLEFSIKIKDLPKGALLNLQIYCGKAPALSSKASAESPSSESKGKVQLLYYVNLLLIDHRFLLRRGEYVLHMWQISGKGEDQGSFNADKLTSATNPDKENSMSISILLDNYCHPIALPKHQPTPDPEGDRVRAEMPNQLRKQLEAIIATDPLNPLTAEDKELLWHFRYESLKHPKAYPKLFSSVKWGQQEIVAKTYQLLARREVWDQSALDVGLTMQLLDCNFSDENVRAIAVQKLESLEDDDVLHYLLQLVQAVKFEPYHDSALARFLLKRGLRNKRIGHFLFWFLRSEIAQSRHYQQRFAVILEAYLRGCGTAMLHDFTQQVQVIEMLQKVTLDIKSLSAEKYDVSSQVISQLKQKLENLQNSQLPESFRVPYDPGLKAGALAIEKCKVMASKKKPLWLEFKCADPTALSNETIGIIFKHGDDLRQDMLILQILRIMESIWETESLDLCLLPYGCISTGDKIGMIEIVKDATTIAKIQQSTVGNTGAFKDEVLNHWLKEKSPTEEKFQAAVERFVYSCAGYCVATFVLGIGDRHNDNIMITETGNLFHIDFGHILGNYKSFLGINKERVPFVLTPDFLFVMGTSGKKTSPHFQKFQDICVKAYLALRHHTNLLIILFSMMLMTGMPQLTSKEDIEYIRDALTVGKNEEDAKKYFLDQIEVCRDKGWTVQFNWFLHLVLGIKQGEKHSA
Sequence of PI3K-B (P42338 whole entry): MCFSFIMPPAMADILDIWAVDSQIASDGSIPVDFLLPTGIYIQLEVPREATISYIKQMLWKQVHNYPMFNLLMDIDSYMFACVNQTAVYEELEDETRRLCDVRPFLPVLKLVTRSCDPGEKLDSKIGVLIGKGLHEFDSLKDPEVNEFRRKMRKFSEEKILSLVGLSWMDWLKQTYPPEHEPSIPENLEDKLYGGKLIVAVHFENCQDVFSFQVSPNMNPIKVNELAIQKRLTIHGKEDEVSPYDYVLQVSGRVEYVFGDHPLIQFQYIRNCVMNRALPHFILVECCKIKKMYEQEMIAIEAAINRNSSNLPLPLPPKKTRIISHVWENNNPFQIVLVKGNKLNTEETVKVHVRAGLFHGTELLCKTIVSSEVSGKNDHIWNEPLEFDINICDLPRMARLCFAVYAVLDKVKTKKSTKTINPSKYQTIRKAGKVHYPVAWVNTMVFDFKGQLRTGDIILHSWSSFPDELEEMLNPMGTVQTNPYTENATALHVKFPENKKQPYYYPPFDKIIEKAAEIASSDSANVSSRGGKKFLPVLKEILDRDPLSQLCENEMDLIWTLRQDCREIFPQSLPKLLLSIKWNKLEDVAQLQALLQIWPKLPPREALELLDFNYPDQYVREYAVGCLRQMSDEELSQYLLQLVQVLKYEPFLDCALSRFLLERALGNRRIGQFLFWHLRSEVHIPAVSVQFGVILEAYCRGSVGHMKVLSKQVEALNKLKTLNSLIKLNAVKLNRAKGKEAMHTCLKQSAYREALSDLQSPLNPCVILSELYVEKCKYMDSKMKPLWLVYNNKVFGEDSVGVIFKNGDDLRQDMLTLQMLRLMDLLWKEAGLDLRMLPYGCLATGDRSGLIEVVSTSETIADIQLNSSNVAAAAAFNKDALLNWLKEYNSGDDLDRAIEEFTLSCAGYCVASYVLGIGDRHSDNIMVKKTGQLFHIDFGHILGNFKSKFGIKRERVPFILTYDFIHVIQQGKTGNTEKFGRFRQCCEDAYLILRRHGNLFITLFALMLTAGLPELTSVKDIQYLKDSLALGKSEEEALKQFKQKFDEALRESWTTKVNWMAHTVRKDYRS
Sequence of PI3K-B (P27986 whole entry partner): as the sequence (P27986 whole entry partner) above

What is called EC50 is the concentration giving half of the maximal effect. Higher therefore signals a less potent agent. A word on the IC50: it is the midpoint of a concentration-inhibition curve. The low end stands for inhibition by little substance, the high end for a need for much substance. As a reminder, the Cmax is the maximum level reached in the sampled fluid or tissue. With `Cc1cc(C(C)Nc2ccccc2C(=O)O)c2oc(N3Cc4ccccc4C3)cc(=O)c2c1` (single isomer, unassigned) [Example 363, 2-[1-(2-Isoindolin-2-yl-6-methyl-4-oxo-chromen-8-yl)ethylamino]benzoic acid], the concentration for a half-maximal effect (EC50) in data set [1] fell in the range of 1 to 5 µM. Further, the half-inhibitory concentration (IC50) in data set [2] was 0.11 µM; in data set [3], more than 10 µM; in data set [4], more than 10 µM; in data set [5] it was 0.45 µM; in data set [6], 0.98 µM; in data set [7] it was 7.8 µM. Further, the clearance in data set [8] (IV 1 mg/kg) turned out to be 0.492 L/h/kg. In addition, the AUC(0-t) in data set [8] (setting [9]) came to 2.13 µg·h/mL; in data set [8] (PO 10 mg/kg, 20% DMSO/60% PEG400/20% Water, fed, read-out: PK-Mouse: PO AUC-0-last), 18 µg·h/mL; in data set [8] (setting [12]), 31 µg·h/mL. Also, the figures for the Cmax in data set [8] (setting [10]) and in data set [8] (setting [11]) were 1.3 µg/mL and 5.1 µg/mL, respectively. Further, the bioavailability in data set [8] (setting [10]) stood at 87%; in data set [8] (setting [11]) it was 33%.
For `Cc1cc(C(C)Nc2ccccc2C(=O)O)c2oc(N3CCC(C)(C)CC3)cc(=O)c2c1` (single isomer, unassigned) [Example 366, 2-[1-[2-(4,4-Dimethyl-1-piperidyl)-6-methyl-4-oxo-chromen-8-yl]ethylamino]benzoic acid], the EC50 in data set [1] was in the range of 1 to 5 µM. For the same compound, the concentration for half-maximal inhibition (IC50) in data set [2], in data set [3], in data set [4], in data set [5], in data set [6] and in data set [7] was more than 10 µM in each case. For the same compound, in data set [8] (IV 1 mg/kg), the clearance stood at 2.58 L/h/kg. The AUC(0-t) in data set [8] (setting [9]) stood at 0.343 µg·h/mL; in data set [8] (PO 10 mg/kg, 30% SBE-beta-cyclodextrin, fed, read-out: PK-Mouse: PO AUC-0-last), 0.0039 µg·h/mL; in data set [8] (setting [12]), 0.048 µg·h/mL; in data set [8] (PO 100 mg/kg, 20% DMSO/60% PEG400/20% H2O, fed, read-out: PK-Mouse: PO AUC-0-last), 0.076 µg·h/mL. Besides, the Cmax worked out at 0.35 µg/mL in data set [8] (setting [13]); 0.00856 µg/mL in data set [8] (setting [11]); 0.0226 µg/mL in data set [8] (PO 100 mg/kg, 20% DMSO/60% PEG400/20% H2O, fed). In addition, the bioavailability in data set [8] (setting [13]) was found to be 100%.
